This data set can be described thus: Solubility comparison of crystal modifications of the compound of the formula (I). In kind it is physicochemical. Conditions: modification II versus known modification (modification I).

On to `O=C(NC[C@H]1CN(c2ccc(N3CCOCC3=O)cc2)C(=O)O1)c1ccc(Cl)s1` [modification II, 5-chloro-N-({(5S)-2-oxo-3-[4-(3-oxo-4-morpholinyl)-phenyl]-1,3-oxazolidin-5-yl}-methyl)-2-thiophenecarboxamide], for which the “solubility in comparison to the known modification” value is given as “higher solubility”.

The values above are taken from patent US8188270B2, “Polymorphous form of 5-chloro-N-({(5S)-2-oxo-3[4-(3-oxo-4-morpholinyl)-phenyl]-1,3-oxazolidine-5-yl}-methyl)-2-thiophene carboxamide” (Bayer Schering Pharma Aktiengesellschaft, priority 2005, dated 2012).
